Like-named read-outs stand apart in the source and are kept apart here.
Columns and labels:
[1] = tested on: Her2 protein levels in BT474 breast cancer cells; assay: Her2 Degradation Assay; format: cell-based; settings: Homo sapiens
Method: The potencies of the compounds of the present invention were evaluated by measuring the Her2 degradation as a marker for HSP90 inhibition.
HSP90 is a key component of a chaperone machinery that catalyzes the folding and quality control of several proteins. Its inhibition impairs the capacity to fold or stabilize its client proteins, leading to the proteosomal dependent degradation of these unfolded proteins. […] Cellular activity of HSP90 inhibitors was assessed by measuring the induced loss of Her2 protein levels in BT474 breast cancer cells (ATCC #HTB-20). Cellular Her2 levels were measured by immunocytochemistry, and quantified using an ArrayScan vTi instrument (Cellomics Thermo Scientific).
Cellular activity of HSP90 inhibitors was assessed by measuring the induced loss of Her2 protein levels in BT474 breast cancer cells (ATCC #HTB-20). Cellular Her2 levels were measured by immunocytochemistry, and quantified using an ArrayScan vTi instrument (Cellomics Thermo Scientific).
Studies were performed as follows: 5000 cells/well are seeded in 96 well plates (Perkin Elmer) in DMEM/5% FCS and incubated for 48 hours at 37° C., 5% CO2.
Medium is then replaced with fresh medium containing test compounds at the required concentration. Concentration curves are prepared in DMEM/10% FCS from compound stocks in DMSO, and final DMSO concentration is 0.1% (v/v). Duplicate wells for each concentration point are prepared, with a typical highest compound concentration of 30 μM. […] Plates are incubated for 20 minutes at room temperature, then wells are washed in PBS and cells permiabilised by incubating with PBS containing 0.3% Triton X-100 for 15 minutes at room temperature. Non-specific binding sites are blocked by incubating wells for 1 hour in PBS containing 3% (w/v) BSA. Wells are then incubated for 1 hour at room temperature in PBS containing anti Her2 mouse monoclonal (Anti-c-ErbB2/c-Neu, Mouse mAb 3B5, Calbiochem Cat N^o OP15) diluted 1:100 in 1% (w/v) BSA. […] After washing a further 3 times in PBS, cellular Her2 immunoreactivity is assessed using the ArrayScan vTi instrument, with a Zeiss 10× 0.5 N.A. objective, and applying the Cytotoxity.V3 algorithm (Cellomics/Thermo Fisher) with a XF100 filter. At least 10 fields, corresponding to at least 900 cells, are read for each well.
IC50 is the response; IC50 starts at Bottom and goes to Top with a sigmoid shape. In Vitro Cell Proliferation Assay

[2] = tested on: A2780 human ovarian cells; assay: In Vitro Cell Proliferation Assay; format: cell-based
Method: The cells were incubated at 37° C. and 5% CO2 and after 72 hours the plates were processed using CellTiter-Glo assay (Promega) following the manufacturer's instruction.
CellTiter-Glo is a homogenous method based on the quantification of the ATP present, an indicator of metabolically active cells. ATP is quantified using a system based on luciferase and D-luciferin resulting into light generation. The luminescent signal is proportional to the number of cells present in culture.
Briefly 25 μL/well reagent solution are added to each wells and after 5 minutes shacking microplates are red by a luminometer. The luminescent signal is proportional to the number of cells present in culture.

[3] = target: His-HSP90 N-term domain; assay: Determination of KD Via Biacore; format: binding; settings: Biacore T100
Method: The evaluation of the binding affinity (KD) of the compounds of formula (I) to the HSP90 protein was done using Biacore T100.
His-HSP90 N-term domain was immobilized by capture of his tag by the Ab previously covalently bound to the chip (CM5) surface.
The compounds were analyzed using the following running buffer: 20 mM Tris/HCl pH 7.6, 150 mM KCl, 5 mM MgCl2, 0.05% P20 and 1% DMSO. The flow rate was 50 ul/min with and association time of 60 seconds.
The cpds were diluted in running buffer from 100× stock solution; the different conc injected were obtained from a sequential dilution in order to have the same DMSO conc. in each sample and avoid any solvent correction.

[4] = tested on: human ovarian carcinoma cell line A2780 transplanted in immunodeficient mice; assay: In Vivo Antitumor Efficacy; design: species or system mouse; settings: for TGI: A2780 in athymic mice
Method: Antitumor activity of HSP90 inhibitors was assessed in vivo using the human ovarian carcinoma cell line A2780 transplanted in immunodeficient mice.
Balb Nu/Nu, male mice, (athymic mice) from Harlan, Italy, were maintained in cages with paper filter covers, food and bedding sterilized and water acidified. A2780 tumors were maintained in vivo by serial transplantation and, at the time of efficacy experiments, implanted subcutaneously in athymic mice. The treatments started 8 days later when the tumors were palpable. HSP90 inhibitors were prepared immediately before use and administered intravenously in a volume of 10 ml/kg at different doses.
Tumor growth was assessed by caliper. The two diameters were recorded, and the tumor weight was calculated according to the following formula: length (mm)×width^2 (mm)/2. The effect of the antitumor treatment was determined as tumor growth inhibition (TGI %) of treated group respect to vehicle treated controls.

[5] = in vivo; settings: Mouse Balb Nu/Nu, single; for clearance / half-life / Vd: 10 mg/kg IV bolus; for clearance: read-out: CL (mL/h/kg) Plasma clearance (converted); for half-life: read-out: T1/2 (h) Terminal half-life (converted); for Vd: read-out: Vdss (mL/kg) Volume of distribution at steady state; for bioavailability: 10 mg/kg oral vs 10 mg/kg IV, read-out: F % Oral bioavailability
Method: Calibration Standards and Quality Controls were prepared spiking blank mouse plasma with appropriate working solutions.
Sample plasma proteins were precipitated by adding 160 μL of acetonitrile/methanol 90/10 to 20 μL of mouse plasma in a 96 well plate.
After heat sealing and mixing for 3 minutes, the plate was centrifuged for 15 minutes at 4000 rpm.
The supernatant was considered as final extract and injected onto the LC-MS-MS system.
• UPLC system: Waters Acquity BSM • Mobile phase A: 95:5-5 mM Ammonium Formate pH3.5: Acetonitrile • Mobile phase B: 5:95-5 mM Ammonium Formate pH3.5: Acetonitrile • Analytical column: BEH C18 50×2.1 1.7 μm • Elution conditions:
• Total Run Time: 2.0 min. • Flow rate: 0.500 mL/min • Approximate retention time: NMS-03308086: 0.67 min. • Column oven temp: 40° C. • Autosampler type: Waters Acquity SM • Injection volume: 3 μL • Injection mode: Partial Loop with Needle Overfill • Autosampler temperature: 5° C. • MS instrument: Waters TQD • Ionisation: ES+ • Capillary: 1.5 kV • Cone: 70 V • Source Temperature: 150° C. • Desolvation Flow and Temp.: 900 L/h-400° C. • Collision Gas Flow: 0.2 mL/min • Collision Energy: 40 • MRM transitions: NMS-03308086: m/z 579.1>m/z 97.0 • Dwell Time: 0.1 seconds • LLOQ: 5.0 ng/mL • ULOQ: 5000 ng/mL • Software used: Mass Lynx 4.1 SCN627

[6] = BT-474, 8 h, read-out: Her2 Degradation IC50 (μM)
[7] = Homo sapiens, A2780, 72 h, read-out: A2780 Proliferation IC50 (μM)
[8] = BT-474, BT474 breast cancer cells, 8 hours, read-out: Her2 Degradation IC50
[9] = A2780 human ovarian cells, 72 hours, CellTiter-Glo, read-out: A2780 Proliferation IC50

CC(C)N1CCC(NC(=O)c2cc(-c3c(O)cc(O)cc3Oc3ccc([N+](=O)[O-])cc3)on2)CC1 [5-[2,4-Dihydroxy-6-(4-nitrophenoxy)phenyl]-N-[1-(propan-2-yl)piperidin-4-yl]isoxazole-3-carboxamide]
IC50 [1, 6]: 0.058 µM

O=C(NC1CCN(C2CCC(F)(F)CC2)CC1)c1cc(-c2c(O)cc(O)cc2Oc2ccc([N+](=O)[O-])cc2)on1 [N-[1-(4,4-Difluorocyclohexyl)piperidin-4-yl]-5-[2,4-dihydroxy-6-(4-nitrophenoxy)phenyl]isoxazole-3-carboxamide]
IC50 [1, 6]: 0.027 µM | IC50 [2, 7]: 0.05 µM | Kd [3]: 0.8 nM

CN1CCC(NC(=O)c2cc(-c3c(O)cc(O)cc3Oc3ccc(N(C)C)cc3)on2)CC1 [5-{2-[4-(Dimethylamino)phenoxy]-4,6-dihydroxyphenyl}-N-(1-methylpiperidin-4-yl)isoxazole-3-carboxamide]
IC50 [1, 8]: 0.039 µM | TGI ([4]; intravenously at 40 mg/Kg daily): 77%

CCNC(=O)c1cc(-c2c(O)cc(O)cc2Oc2ccc(Cl)cc2)on1 [5-[2-(4-chlorophenoxy)-4,6-dihydroxyphenyl]-N-ethylisoxazole-3-carboxamide]
IC50 [1, 6]: 0.059 µM

CN(C)c1ccc(Oc2cc(O)cc(O)c2-c2cc(C(=O)NC3CCN(CC4CCCCC4)CC3)no2)cc1 [N-[1-(Cyclohexylmethyl)piperidin-4-yl]-5-{2-[4-(dimethylamino)phenoxy]-4,6-dihydroxyphenyl}isoxazole-3-carboxamide]
IC50 [1, 6]: 0.02 µM | IC50 [2, 7]: 0.01 µM | Kd [3]: 0.188 nM

CN(C)c1ccc(Oc2cc(O)cc(O)c2-c2cc(C(=O)NC3CCN(C4CCC(F)(F)CC4)CC3)no2)cc1 [N-[1-(4,4-Difluorocyclohexyl)piperidin-4-yl]-5-{2-[4-(dimethylamino)phenoxy]-4,6-dihydroxyphenyl}isoxazole-3-carboxamide]
IC50 [1, 6]: 0.002 µM | IC50 [2, 7]: 0.02 µM | Kd [3]: 0.057 nM

CCNC(=O)c1cc(-c2c(O)cc(O)cc2Oc2ccc(C#N)cc2)on1 [5-[2-(4-Cyanophenoxy)-4,6-dihydroxyphenyl]-N-ethylisoxazole-3-carboxamide]
IC50 [1, 8]: 0.277 µM

CN1CCC(NC(=O)c2cc(-c3c(O)cc(O)cc3Oc3ccc([N+](=O)[O-])cc3)on2)CC1 [5-[2,4-dihydroxy-6-(4-nitrophenoxy)phenyl]-N-(1-methylpiperidin-4-yl)isoxazole-3-carboxamide]
IC50 [1, 8]: 0.11 µM | IC50 [2, 9]: 0.06 µM | TGI ([4]; 30 mg/kg for 10 consecutive days, intravenously): 53% | TGI ([4]; 60 mg/kg for 10 consecutive days, intravenously): 74% | signs of toxicities ([4]; 30 and 60 mg/kg for 10 consecutive days, athymic mice): without signs of toxicities

CCNC(=O)c1cc(-c2c(O)cc(O)cc2Oc2ccc([N+](=O)[O-])cc2)on1 [5-[2,4-Dihydroxy-6-(4-nitrophenoxy)phenyl]-N-ethyl isoxazole-3-carboxamide]
IC50 [1, 6]: 0.059 µM | IC50 [2, 7]: 0.07 µM

CN(C)c1ccc(Oc2cc(O)cc(O)c2-c2cc(C(=O)NC3CCN(C4CCC5(CC4)OCCCCO5)CC3)no2)cc1 [5-{2-[4-(Dimethylamino)phenoxy]-4,6-dihydroxyphenyl}-N-[1-(7,12-dioxaspiro[5.6]dodec-3-yl)piperidin-4-yl]isoxazole-3-carboxamide]
IC50 [1, 8]: 0.045 µM | IC50 [2, 9]: 0.023 µM | Kd [3]: 0.423 nM | clearance [5]: 1310 mL/h/kg | half-life [5]: 6.87 h | Vd [5]: 5980 mL/kg | bioavailability [5]: 14%

CN(C)c1ccc(Oc2cc(O)cc(O)c2-c2cc(C(=O)NC3CCN(C4CCC5(CC4)OCCO5)CC3)no2)cc1
clearance [5]: 1760 mL/h/kg | half-life [5]: 5.46 h | Vd [5]: 4940 mL/kg | bioavailability [5]: 36%

CN(C)c1ccc(Oc2cc(O)cc(O)c2-c2cc(C(=O)NC3CCN(C4CCC5(CC4)OCC(C)(C)CO5)CC3)no2)cc1 [5-{2-[4-(Dimethylamino)phenoxy]-4,6-dihydroxyphenyl}-N-[1-(3,3-dimethyl-1,5-dioxaspiro[5.5]undec-9-yl)piperidin-4-yl]isoxazole-3-carboxamide]
IC50 [1, 8]: 0.037 µM | IC50 [2, 9]: 0.035 µM | Kd [3]: 0.08 nM | clearance [5]: 1340 mL/h/kg | half-life [5]: 6.71 h | Vd [5]: 6000 mL/kg | bioavailability [5]: 19%

CN(C)c1ccc(Oc2cc(O)cc(O)c2-c2cc(C(=O)NC3CCN(C4CCCCC4)CC3)no2)cc1 [N-(1-Cyclohexylpiperidin-4-yl)-5-{2-[4-(dimethylamino)phenoxy]-4,6-dihydroxyphenyl}isoxazole-3-carboxamide]
IC50 [1, 6]: 0.003 µM

CN(C)c1ccc(Oc2cc(O)cc(O)c2-c2cc(C(=O)NC3CCN(C4CCC5(CC4)OCCO5)CC3)on2)cc1 [3-{2-[4-(Dimethylamino)phenoxy]-4,6-dihydroxyphenyl}-N-[1-(1,4-dioxaspiro[4.5]dec-8-yl)piperidin-4-yl]isoxazole-5-carboxamide]
IC50 [1, 8]: 0.003 µM | IC50 [2, 9]: 0.02 µM | Kd [3]: 0.043 nM | clearance [5]: 1910 mL/h/kg | half-life [5]: 7.23 h | Vd [5]: 9120 mL/kg | bioavailability [5]: 23%

CN1CCC(NC(=O)c2cc(-c3c(O)cc(O)cc3Oc3ccc([N+](=O)[O-])cc3)no2)CC1 [3-[2,4-Dihydroxy-6-(4-nitrophenoxy)phenyl]-N-(1-methylpiperidin-4-yl)isoxazole-5-carboxamide]
IC50 [1, 6]: 0.022 µM | IC50 [2, 7]: 0.02 µM | Kd [3]: 0.24 nM | clearance [5]: 3420 mL/h/kg | half-life [5]: 1.52 h | Vd [5]: 4470 mL/kg | bioavailability [5]: 7%
